Experimental data taken from US9738634B2, “Heterocyclic amide compound and herbicide” (SYNGENTA PARTICIPATIONS AG, priority 2013, dated 2017).

Tests used:
Type in all cases: in vivo
[1] = tested on: redroot pigweed; assay: Test Example 3: weedkilling efficacy through soil treatment; L: redroot pigweed; conditions: treatment dosage 315 g/ha
Procedure, shortened: (§1)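 Crop and weed responses were judged three weeks after a uniform surface spray of the water-diluted emulsion at the given g/ha rate. Seeds sat beneath about 1.5 cm of sterilized diluvial soil, and boxes stood in a greenhouse at 25 to 30° C.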

[2] = tested on: fig-leafed goosefoot; assay: Test Example 4: weedkilling efficacy by foliar treatment; M: fig-leafed goosefoot; conditions: treatment dosage 315 g/ha
Procedure, shortened: (§2)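 Seeds are spot-sown into sterilized diluvial soil and covered with about 1.5 cm of soil. After 14 days' greenhouse growth at 25 to 30° C, plants are sprayed on stems and leaves with diluted emulsion at the stated g/ha rate, then scored at 3 weeks.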

[3] = tested on: chickweed; assay: Test Example 4: weedkilling efficacy by foliar treatment; N: chickweed; conditions: treatment dosage 315 g/ha
Procedure, shortened: as §2

[4] = tested on: crabgrass; assay: Test Example 3: weedkilling efficacy through soil treatment; D: crabgrass; conditions: treatment dosage 315 g/ha
Procedure, shortened: as §1

[5] = tested on: Indian mallow; assay: Test Example 4: weedkilling efficacy by foliar treatment; K: Indian mallow; conditions: treatment dosage 315 g/ha
Procedure, shortened: as §2

[6] = tested on: soybean; assay: Test Example 4: foliar treatment, effect on crop; d: soybean; conditions: treatment dosage 315 g/ha
Procedure, shortened: as §2

[7] = tested on: green foxtail; assay: Test Example 4: weedkilling efficacy by foliar treatment; E: green foxtail; conditions: treatment dosage 315 g/ha
Procedure, shortened: as §2

[8] = tested on: bulrush; assay: Test Example 1: weedkilling efficacy, preemergent weed treatment in the submerged state; B: bulrush; conditions: treatment dosage 252 g/ha
Procedure, shortened: (§3)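 Emulsion diluted with water to the specified per-hectare dosage is applied onto flood water (4 cm) over alluvial soil on the sowing day, with barnyard grass, bulrush and pondweed seeded and rice (2.5-leaf) transplanted; plants grow at 25–30 °C and are rated at 3 weeks.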

[9] = tested on: oval-leafed pondweed; assay: Test Example 1: weedkilling efficacy, preemergent weed treatment in the submerged state; C: oval-leafed pondweed; conditions: treatment dosage 252 g/ha
Procedure, shortened: as §3

[10] = tested on: chickweed; assay: Test Example 3: weedkilling efficacy through soil treatment; N: chickweed; conditions: treatment dosage 315 g/ha
Procedure, shortened: as §1

[11] = tested on: wild oat; assay: Test Example 3: weedkilling efficacy through soil treatment; G: wild oat; conditions: treatment dosage 315 g/ha
Procedure, shortened: as §1

[12] = tested on: wheat; assay: Test Example 4: foliar treatment, effect on crop; e: wheat; conditions: treatment dosage 315 g/ha
Procedure, shortened: as §2

[13] = tested on: directly sown rice; assay: Test Example 4: foliar treatment, effect on crop; b: directly sown rice; conditions: treatment dosage 315 g/ha
Procedure, shortened: as §2

[14] = tested on: oval-leafed pondweed; assay: Test Example 2: weedkilling efficacy, growth period weed treatment in the submerged state; C: oval-leafed pondweed; conditions: treatment dosage 252 g/ha
Procedure, shortened: (§4)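 First, alluvial soil in pots is flooded to 4 cm and mixed seed is sown. Next, plants grow in a greenhouse at 25 to 30° C until the 1-2 leaf stage. Then diluted emulsion is applied onto the water surface at the given g/ha rate, and injury is assessed after 3 weeks.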

[15] = tested on: crabgrass; assay: Test Example 4: weedkilling efficacy by foliar treatment; D: crabgrass; conditions: treatment dosage 315 g/ha
Procedure, shortened: as §2

[16] = tested on: beet; assay: Test Example 4: foliar treatment, effect on crop; f: beet; conditions: treatment dosage 315 g/ha
Procedure, shortened: as §2

[17] = tested on: green foxtail; assay: Test Example 3: weedkilling efficacy through soil treatment; E: green foxtail; conditions: treatment dosage 315 g/ha
Procedure, shortened: as §1

[18] = tested on: Italian ryegrass; assay: Test Example 3: weedkilling efficacy through soil treatment; I: Italian ryegrass; conditions: treatment dosage 315 g/ha
Procedure, shortened: as §1

[19] = tested on: bulrush; assay: Test Example 2: weedkilling efficacy, growth period weed treatment in the submerged state; B: bulrush; conditions: treatment dosage 252 g/ha
Procedure, shortened: as §4

[20] = tested on: beet; assay: Test Example 3: soil treatment, effect on crop; f: beet; conditions: treatment dosage 315 g/ha
Procedure, shortened: as §1

[21] = tested on: birds-eye speedwell; assay: Test Example 3: weedkilling efficacy through soil treatment; p: birds-eye speedwell; conditions: treatment dosage 315 g/ha
Procedure, shortened: as §1

[22] = tested on: fig-leafed goosefoot; assay: Test Example 3: weedkilling efficacy through soil treatment; M: fig-leafed goosefoot; conditions: treatment dosage 315 g/ha
Procedure, shortened: as §1

[23] = tested on: wheat; assay: Test Example 3: soil treatment, effect on crop; e: wheat; conditions: treatment dosage 315 g/ha
Procedure, shortened: as §1

[24] = tested on: Indian mallow; assay: Test Example 3: weedkilling efficacy through soil treatment; K: Indian mallow; conditions: treatment dosage 315 g/ha
Procedure, shortened: as §1

[25] = tested on: Italian ryegrass; assay: Test Example 4: weedkilling efficacy by foliar treatment; I: Italian ryegrass; conditions: treatment dosage 315 g/ha
Procedure, shortened: as §2

[26] = tested on: redroot pigweed; assay: Test Example 4: weedkilling efficacy by foliar treatment; L: redroot pigweed; conditions: treatment dosage 315 g/ha
Procedure, shortened: as §2

[27] = tested on: barnyard grass; assay: Test Example 1: weedkilling efficacy, preemergent weed treatment in the submerged state; A: barnyard grass; conditions: treatment dosage 252 g/ha
Procedure, shortened: as §3

[28] = tested on: corn; assay: Test Example 3: soil treatment, effect on crop; c: corn; conditions: treatment dosage 315 g/ha
Procedure, shortened: as §1

[29] = tested on: barnyard grass; assay: Test Example 2: weedkilling efficacy, growth period weed treatment in the submerged state; A: barnyard grass; conditions: treatment dosage 252 g/ha
Procedure, shortened: as §4

[30] = tested on: directly sown rice; assay: Test Example 3: soil treatment, effect on crop; b: directly sown rice; conditions: treatment dosage 315 g/ha
Procedure, shortened: as §1

[31] = tested on: black-grass; assay: Test Example 3: weedkilling efficacy through soil treatment; H: black-grass; conditions: treatment dosage 315 g/ha
Procedure, shortened: as §1

[32] = tested on: transplanted rice; assay: Test Example 1: preemergent weed treatment in the submerged state, effect on crop; a: transplanted rice; conditions: treatment dosage 252 g/ha
Procedure, shortened: as §3

[33] = tested on: soybean; assay: Test Example 3: soil treatment, effect on crop; d: soybean; conditions: treatment dosage 315 g/ha
Procedure, shortened: as §1

[34] = tested on: catchweed; assay: Test Example 4: weedkilling efficacy by foliar treatment; O: catchweed; conditions: treatment dosage 315 g/ha
Procedure, shortened: as §2

[35] = tested on: wild oat; assay: Test Example 4: weedkilling efficacy by foliar treatment; G: wild oat; conditions: treatment dosage 315 g/ha
Protocol: Testing of Weedkilling Efficacy by Foliar Treatment
Sterilized diluvial soil was introduced into 21 cm long, 13 cm wide, 7 cm deep plastic boxes, and seeds of crabgrass, green foxtail, barnyard grass, wild oat, black-grass, Italian ryegrass, common wind-grass, Indian mallow, redroot pigweed, fig-leafed goosefoot, chickweed, catchweed, birds-eye speedwell, corn, soybean, rice, wheat, beet and rapeseed were each spot-sown, and covered with about 1.5 cm of soil, then the plants were grown in a greenhouse at 25 to 30° C.
After they had grown for 14 days, emulsions of compounds of the present invention prepared according to compounding example 2 were diluted with water to give the specified dosages, and applied uniformly onto the stem and leaf parts with a small sprayer. 3 weeks after the pesticide treatment the effect on each type of plant was investigated on the basis of the assessment criteria of test example 1.
A: barnyard grass, B: bulrush, C: oval-leafed pondweed, D: crabgrass, E: green foxtail, F: barnyard grass, G: wild oat, H: black-grass, I: Italian ryegrass, J: common wind-grass, K: Indian mallow, L: redroot pigweed, M: fig-leafed goosefoot, N: chickweed, O: catchweed, p: birds-eye speedwell, a: transplanted rice, b: directly sown rice, c: corn, d: soybean, e: wheat, f: beet, g: rapeseed
Further, pesticide dosage (g/ha) indicates the concentration regulated such that treatment was with only the stated number of grams (g), when calculated per hectare (ha).

[36] = tested on: corn; assay: Test Example 4: foliar treatment, effect on crop; c: corn; conditions: treatment dosage 315 g/ha
Procedure, shortened: as §2

[37] = tested on: black-grass; assay: Test Example 4: weedkilling efficacy by foliar treatment; H: black-grass; conditions: treatment dosage 315 g/ha
Procedure, shortened: as §2

[38] = tested on: catchweed; assay: Test Example 3: weedkilling efficacy through soil treatment; O: catchweed; conditions: treatment dosage 315 g/ha
Procedure, shortened: as §1

Structure (SMILES)	L (redroot pigweed) weedkilling efficacy grade [1]	M (fig-leafed goosefoot) weedkilling efficacy grade [2]	N (chickweed) weedkilling efficacy grade [3]	D (crabgrass) weedkilling efficacy grade [4]	K (Indian mallow) weedkilling efficacy grade [5]	d (soybean) effect on crop grade [6]	E (green foxtail) weedkilling efficacy grade [7]	B (bulrush) weedkilling efficacy grade [8]	C (oval-leafed pondweed) weedkilling efficacy grade [9]	G (wild oat) weedkilling efficacy grade [11]	e (wheat) effect on crop grade [12]	b (directly sown rice) effect on crop grade [13]	C (oval-leafed pondweed) weedkilling efficacy grade [14]	D (crabgrass) weedkilling efficacy grade [15]	f (beet) effect on crop grade [16]	E (green foxtail) weedkilling efficacy grade [17]	I (Italian ryegrass) weedkilling efficacy grade [18]	B (bulrush) weedkilling efficacy grade [19]	f (beet) effect on crop grade [20]	M (fig-leafed goosefoot) weedkilling efficacy grade [22]	further results
CC1=C(c2ccccc2)C(=O)N(C(C)(C)C(=O)Nc2cccc(F)n2)CO1 [B-2-27]	5 (weed kill ratio 90% or more, (practically complete withering))	3 (weed kill ratio 40% or more, less than 70%)	4 (weed kill ratio 70% or more, less than 90%)	5 (weed kill ratio 90% or more, (practically complete withering))	4 (weed kill ratio 70% or more, less than 90%)	4 (weed kill ratio 70% or more, less than 90%)	5 (weed kill ratio 90% or more, (practically complete withering))	5 (weed kill ratio 90% or more, (practically complete withering))	5 (weed kill ratio 90% or more, (practically complete withering))	5 (weed kill ratio 90% or more, (practically complete withering))	4 (weed kill ratio 70% or more, less than 90%)	5 (weed kill ratio 90% or more, (practically complete withering))	5 (weed kill ratio 90% or more, (practically complete withering))	5 (weed kill ratio 90% or more, (practically complete withering))	4 (weed kill ratio 70% or more, less than 90%)	5 (weed kill ratio 90% or more, (practically complete withering))	5 (weed kill ratio 90% or more, (practically complete withering))	5 (weed kill ratio 90% or more, (practically complete withering))	4 (weed kill ratio 70% or more, less than 90%)	5 (weed kill ratio 90% or more, (practically complete withering))	N (chickweed) weedkilling efficacy grade [10]: 5 (weed kill ratio 90% or more, (practically complete withering)); P (birds-eye speedwell) weedkilling efficacy grade [21]: 5 (weed kill ratio 90% or more, (practically complete withering)); e (wheat) effect on crop grade [23]: 5 (weed kill ratio 90% or more, (practically complete withering)); K (Indian mallow) weedkilling efficacy grade [24]: 5 (weed kill ratio 90% or more, (practically complete withering)); I (Italian ryegrass) weedkilling efficacy grade [25]: 5 (weed kill ratio 90% or more, (practically complete withering)); L (redroot pigweed) weedkilling efficacy grade [26]: 4 (weed kill ratio 70% or more, less than 90%); A (barnyard grass) weedkilling efficacy grade [27]: 5 (weed kill ratio 90% or more, (practically complete withering)); c (corn) effect on crop grade [28]: 4 (weed kill ratio 70% or more, less than 90%); A (barnyard grass) weedkilling efficacy grade [29]: 4 (weed kill ratio 70% or more, less than 90%); b (directly sown rice) effect on crop grade [30]: 5 (weed kill ratio 90% or more, (practically complete withering)); H (black-grass) weedkilling efficacy grade [31]: 5 (weed kill ratio 90% or more, (practically complete withering)); a (transplanted rice) effect on crop grade [32]: 0 (weed kill ratio 5% or less (practically no effect)); d (soybean) effect on crop grade [33]: 5 (weed kill ratio 90% or more, (practically complete withering)); O (catchweed) weedkilling efficacy grade [34]: 4 (weed kill ratio 70% or more, less than 90%); G (wild oat) weedkilling efficacy grade [35]: 5 (weed kill ratio 90% or more, (practically complete withering)); c (corn) effect on crop grade [36]: 4 (weed kill ratio 70% or more, less than 90%); H (black-grass) weedkilling efficacy grade [37]: 5 (weed kill ratio 90% or more, (practically complete withering))
CC1=C(c2ccccc2)C(=O)N(C(C)(C)C(=O)Nc2ccnc(C(F)(F)F)c2)CO1 [B-4-06]	3 (weed kill ratio 40% or more, less than 70%)	4 (weed kill ratio 70% or more, less than 90%)	3 (weed kill ratio 40% or more, less than 70%)	5 (weed kill ratio 90% or more, (practically complete withering))	3 (weed kill ratio 40% or more, less than 70%)	4 (weed kill ratio 70% or more, less than 90%)	5 (weed kill ratio 90% or more, (practically complete withering))	5 (weed kill ratio 90% or more, (practically complete withering))	5 (weed kill ratio 90% or more, (practically complete withering))	5 (weed kill ratio 90% or more, (practically complete withering))	1 (weed kill ratio 5% or more, less than 20%)	5 (weed kill ratio 90% or more, (practically complete withering))	5 (weed kill ratio 90% or more, (practically complete withering))	5 (weed kill ratio 90% or more, (practically complete withering))	3 (weed kill ratio 40% or more, less than 70%)	5 (weed kill ratio 90% or more, (practically complete withering))	5 (weed kill ratio 90% or more, (practically complete withering))	5 (weed kill ratio 90% or more, (practically complete withering))	4 (weed kill ratio 70% or more, less than 90%)	4 (weed kill ratio 70% or more, less than 90%)	O (catchweed) weedkilling efficacy grade [38]: 4 (weed kill ratio 70% or more, less than 90%); e (wheat) effect on crop grade [23]: 3 (weed kill ratio 40% or more, less than 70%); K (Indian mallow) weedkilling efficacy grade [24]: 1 (weed kill ratio 5% or more, less than 20%); I (Italian ryegrass) weedkilling efficacy grade [25]: 5 (weed kill ratio 90% or more, (practically complete withering)); L (redroot pigweed) weedkilling efficacy grade [26]: 4 (weed kill ratio 70% or more, less than 90%); A (barnyard grass) weedkilling efficacy grade [27]: 5 (weed kill ratio 90% or more, (practically complete withering)); c (corn) effect on crop grade [28]: 2 (weed kill ratio 20% or more, less than 40%); A (barnyard grass) weedkilling efficacy grade [29]: 4 (weed kill ratio 70% or more, less than 90%); H (black-grass) weedkilling efficacy grade [31]: 5 (weed kill ratio 90% or more, (practically complete withering)); a (transplanted rice) effect on crop grade [32]: 0 (weed kill ratio 5% or less (practically no effect)); d (soybean) effect on crop grade [33]: 0 (weed kill ratio 5% or less (practically no effect)); O (catchweed) weedkilling efficacy grade [34]: 4 (weed kill ratio 70% or more, less than 90%); G (wild oat) weedkilling efficacy grade [35]: 5 (weed kill ratio 90% or more, (practically complete withering)); c (corn) effect on crop grade [36]: 5 (weed kill ratio 90% or more, (practically complete withering)); H (black-grass) weedkilling efficacy grade [37]: 5 (weed kill ratio 90% or more, (practically complete withering))
